Test results reported in the METLIN SMRT retention time set (Domingo-Almenara et al. 2019).

Test: gradient 5% acetonitrile 3 min, to 50% in 2 min, to 85% in 15 min, held 3 min, 100 µL/min
Conditions: column: Zorbax Extend-C18 2.1 x 50 mm; eluents: water / acetonitrile, 0.1% formic acid
Procedure, shortened: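 Pure standards were run in mixtures of ~100 molecules by HPLC coupled to a quadrupole time-of-flight mass spectrometer. The column was a Zorbax Extend-C18 (2.1 × 50 mm, 1.8 μm) at 100 μL/min, with water and acetonitrile each containing 0.1% formic acid, in positive and negative ionization mode. Dead and dwell volumes were 40 μL and 900 μL. Retention time was taken from computationally picked adduct peaks, each manually inspected, with data collected over 3 months.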

RP-LC retention time [s] | SMILES
799 | CC(C)n1cnc(S(=O)(=O)N2CCCC(C(=O)NCc3ccc(Cl)cc3)C2)c1 (centres undefined)
919 | O=C(c1cccs1)N1N=C(c2ccc3c(c2)OCO3)CC1c1ccco1 (centres undefined)
700 | Cc1ccc(-c2nc3cnccn3c2NCCC(=O)NCc2cccs2)cc1
562 | CN(CC(=O)Nc1c2c(nc3c1CCC3)CCCC2)Cc1ccccc1
788 | CN1C(=O)CCc2cc(NS(=O)(=O)Cc3ccc(Cl)cc3)ccc21
616 | CCc1nc(N)n(CC(=O)NCc2ccccc2Cl)c(=O)c1C
631 | CCC1Oc2ccc(C)cc2N(CC(=O)NCCN(C)C)C1=O (centres undefined)
638 | CN(C)C(=O)c1ccc2c(c1)nnn2CCNC(=O)Nc1ccccc1F
987 | COc1ccc(CN(CCC2(C(C)C)CCOC(C)(C)C2)C(C)=O)cc1 (centres undefined)
550 | COc1ccc(CNc2nc3ccncc3n(C(C)C)c2=O)cc1OC
865 | COCCn1cc(C(=O)Nc2ccc(C(C)=O)cc2)c2nn(-c3ccccc3)c(=O)c-2c1
987 | COc1ccc(Cl)cc1S(=O)(=O)NCCc1cn(CC(C)C)c2ncccc12
1080 | Cc1oc(-c2cccc(Cl)c2)nc1Cn1nnc(-c2nc(-c3cccnc3)no2)c1C
651 | COc1cccc(CN2CC=C(C(=O)N3CCN(c4ccccc4OC)CC3)CC2)c1
745 | COc1ccc(F)cc1S(=O)(=O)N1CCC(C(=O)Nc2cc(C)on2)CC1
1010 | CC(C)N1C(=O)C(C)(C(=O)NCc2ccc(Br)cc2)Oc2cccnc21 (centres undefined)
662 | CCc1noc(-c2cccnc2N2CCCN(Cc3ccccc3F)CC2)n1
769 | Cc1noc2ncn(CC(=O)NCc3ccc(Cl)cc3)c(=O)c12
859 | O=C(NC1CCCCCCC1)C1CC(=O)N(CCc2c[nH]c3ccc(F)cc23)C1 (centres undefined)
1040 | O=C(CCc1ccccc1)N1CCCC1c1nc(-c2ccccc2Cl)no1 (centres undefined)
1140 | Cc1cccc(Sc2nccnc2N2CCC(C(=O)NCCCc3ccccc3)CC2)c1
803 | CCCCc1ccc(NC(=O)CSc2nccc(N3CCCC3)n2)cc1

RP-LC retention time [s] | SMILES
1010 | CC1CCN(c2cc(-n3cnc(C(=O)N4CCCCCC4)c3)ncn2)CC1
929 | Cc1cccc(N2CCN(C(=O)C3CCN(S(=O)(=O)c4cn(C(C)C)cn4)CC3)CC2)c1C
699 | O=C(Nc1ccc(F)cc1)N1CCC(N2CC(F)(F)C[C@H]2COCC2CC2)CC1
806 | Cc1ccc(CNC(=O)C2(C)Oc3cccnc3N(C)C2=O)cc1 (centres undefined)
725 | CCCCNC(=O)c1cc2n(n1)CC(C)(C(=O)NCc1ccc(F)cc1)N(C)C2=O (centres undefined)
674 | Cc1nncn1C1CCN(S(=O)(=O)c2ccc(C(C)C)cc2)CC1
789 | O=C(c1ccccc1)N1CCN(S(=O)(=O)c2cc3c4c(c2)CCC(=O)N4CCC3)CC1
617 | CC(=O)NC1(C(=O)O)CCCC1
977 | CC(=O)c1cccc(NC(=O)c2noc3c2CCCCC3)c1
666 | CC(C)NC(=O)Cn1ccn2nc(-c3ccccc3)c(CO)c2c1=O
642 | COc1ccc(NC(=O)N2CCN(Cc3nc4ccccc4o3)CC2)cc1
915 | Cc1ccc(NC(=O)NC2CCN(c3ccccc3)C2=O)cc1Cl (centres undefined)
1080 | Cc1c(C(=O)NCc2ccc(OC(C)C)cc2)cc(-c2ccccc2)n1C
1010 | COc1ccccc1CC(=O)N1CCCn2nc(-c3ccc(Cl)cc3)cc2C1
696 | CCOC(=O)c1[nH]c(C)c(C(=O)N2CCC(CC(=O)NC3CCCC3)CC2)c1C
651 | O=C(Nc1c(-c2ccc(F)cc2)nc2ccccn12)c1ccc2c(c1)OCO2
652 | NS(=O)(=O)c1ccc(NC(=O)CSc2nnc3ccc4ccccc4n23)cc1
1020 | Cc1ccc(C)c(N2CCN(c3ccnc(SCC(=O)Nc4cccc(Cl)c4C)n3)CC2)c1
680 | O=S(=O)(c1cccc(Cl)c1)N1CCC2(CCN(c3cccnc3)C2)C1 (centres undefined)
816 | O=C(CSc1ccc(-n2cnc(-c3ccccc3)c2)nn1)Nc1ccc(F)cc1F
605 | CCc1nccn1Cc1nc(-c2cccc(OC)c2OC)no1
995 | CCCCn1cc(S(=O)(=O)Nc2ccc(F)c(C)c2)c2cccnc21

RP-LC retention time [s] | SMILES
904 | O=C(NCc1ccc(F)cc1)Nc1ccc2c(c1)CCN2S(=O)(=O)c1ccccc1
1010 | O=C(c1nnc(-c2ccc(S(=O)(=O)N3CCCCC3)cc2)o1)N1CCCCCC1
969 | Cc1ccc(S(=O)(=O)N2CCCC2C(=O)Nc2ccc(C)cc2C)cc1 (centres undefined)
785 | CC(=O)Nc1ccc(C2(C(=O)NCc3ccc(Cl)cc3)CCC2)cc1
982 | Cc1sc(-c2cc(C(F)(F)F)on2)cc1S(=O)(=O)NCc1ccc(N(C)C)cc1
685 | CCN(CC)C(=O)c1cc(=O)n(CC(=O)NC2CCCC2)c2ccccc12
879 | Cc1noc(-c2cccc(OC3CN(C(=O)NCCc4ccccc4)C3)c2)n1
768 | Cc1cc(F)ccc1NC(=O)c1csc(-c2ccc(N3CCCC3)nc2)n1
642 | O=C(CNC(=O)c1cc(F)cc(F)c1)Nc1nc2ccccc2[nH]1
959 | O=C(Cn1nc2c3cc(-c4ccc(F)cc4)nn3ccn2c1=O)Nc1ccc(F)cc1Cl
784 | COc1ccc(OC)c(CNc2c(-c3nc(C(C)C)no3)cnc3nc(C)ccc23)c1
854 | Cc1ccc(/C=N/NC(=O)c2ccccc2Oc2ccccc2)o1
669 | COc1ccccc1C(CNC(=O)c1cc(=O)c2ccc(Br)cc2o1)N(C)C (centres undefined)
725 | COc1ccccc1CNC(=O)C1CCCN(c2nnc(C)c3c(C)n(-c4ccccc4)nc23)C1 (centres undefined)
668 | COCc1c(C(=O)O)nnn1-c1cccc(OC)c1
1190 | CSc1ccc(CNC(=O)C2CCCN(c3nc4c(s3)c(C)nn4-c3ccc(F)cc3)C2)cc1 (centres undefined)
542 | O=c1cc(CO)oc(C(Nc2ccccn2)c2cccc(F)c2)c1O (centres undefined)
1060 | COCCN1C(=O)CCc2cc(NS(=O)(=O)c3cc(C)ccc3C)ccc21
579 | N#CCCN1CCN(c2ccc(NC(=O)C3CC3)c(C(=O)O)c2)CC1
696 | COc1ccc(-c2cc(N3CCC(NC(=O)c4ccc(F)cc4F)C3)n[nH]2)cc1 (centres undefined)
777 | CC(C)(N)C(=O)N[C@H](COCc1ccccc1)C(=O)N1CCC2(CC1)CN(S(C)(=O)=O)c1ccccc12
557 | O=C(CCc1nc2ccccc2[nH]1)N1CCC(c2noc(-c3ccncc3)n2)C1 (centres undefined)

RP-LC retention time [s] | SMILES
892 | CC(C)c1ccc(CNC(=O)C2CCN(C(=O)c3ncn4c3COC(c3ccccc3)C4)CC2)cc1 (centres undefined)
878 | CC(C)NC(=O)c1ccc(OCC2CCN(C(=O)c3ccc(Br)o3)CC2)cc1
534 | Cc1ccc(CNC(=O)Nc2cnc3c(c2)CCC3)cc1
616 | CCOc1ccccc1CN1CCc2nc(Nc3ccc(F)cc3)ncc2C1
738 | Cn1c(=O)n(C)c2cc(CNc3cc(C(=O)O)ccc3Cl)ccc21
629 | O=C(Nc1ccc(-c2cn3cccnc3n2)cc1)c1cccs1
675 | CCCN(C)C(=O)CCc1cc2cc(OC)ccc2[nH]c1=O
550 | O=C1NCCCn2cc(S(=O)(=O)N3CCN(c4ccccn4)CC3)cc21
708 | Cc1ccc(NC(=O)C2CC(=O)N(c3n[nH]c4cccc(F)c34)C2)cc1 (centres undefined)
751 | CCCS(=O)(=O)N1CCC(c2noc(-c3ccncc3)n2)C1 (centres undefined)
613 | COCCCNC(=O)C1CCN(c2ncccc2S(=O)(=O)N2CCOCC2)CC1
1090 | Cc1ccc(-n2nc(CO)c(C(=O)NC3CCCC3)n2)cc1C
1200 | Cc1ccc(NC(=O)Cn2nc(N3CCCCCC3)c3ccccc3c2=O)cc1C
1080 | COc1ccc(NC(=O)N2c3ccccc3CC2c2nc(C(C)C)no2)c(OC)c1 (centres undefined)
847 | COc1ccc(C)cc1NC(=O)C1CCN(c2nc(C3CCC3)nc3csc(C)c23)CC1
866 | CCOC(=O)CNC(=O)Nc1ccccc1-c1cc2ccccc2[nH]1
772 | COc1ccc(C2C(C(=O)N3CCCC(C)C3)CCC(=O)N2c2cc(OC)c(OC)c(OC)c2)cc1 (centres undefined)
719 | O=C(NCc1ccc2c(c1)OCO2)C1CCN(C(=O)c2ccccc2F)CC1
789 | Cc1cc(C)n2nc(SCC(=O)Nc3cccc(Cl)c3)nc2n1
718 | CCOc1ccc(-c2nc(CN3CCN(C(=O)NC4CCCCC4)CC3)c(C)o2)cc1
773 | Cc1nn(-c2ccc(-c3noc(C4CC4)n3)cc2)cc1C(=O)Nc1ccc(F)cc1F
975 | Cc1cc2c(c(=O)n(-c3ccccc3)c(=O)n2CC(=O)Nc2ccc(C(C)C)cc2)n1C

SMILES | RP-LC retention time [s]
CCOC(=O)c1c(C)n(Cc2ccco2)c2ccc(OCC)cc12 | 617
